Here are results for 18 compounds from patent publication US9926294B2, “Pesticidally active heterocyclic derivatives with sulphur containing substituents” (Syngenta Participations AG, priority 2014, dated 2018).

As a reminder, the mortality is the share of the test organisms that died.

Type in all cases: in vivo
Test [1] has as its system Spodoptera littoralis (Egyptian cotton leaf worm). As to the kind of experiment: Example B1: Spodoptera littoralis larvicide, feeding/residual contact, preventive (cotton leaf discs). Conditions: foliar, 72 h, L1 larvae on sprayed cotton leaf discs, 3 days after treatment, read-out: activity (mortality, repellent effect, feeding behaviour, growth regulation). The text has this: Example B1: Activity Against Spodoptera littoralis (Egyptian Cotton Leaf Worm)
Larvicide, Feeding/Residual Contact Activity, Preventive
Cotton leaf discs were placed on agar in a 24-well microtiter plate and sprayed with test solutions.
After drying, the leaf discs were infested with 5 L1 larvae. The samples were checked for mortality, repellent effect, feeding behaviour, and growth regulation 3 days after treatment (DAT).

The subject of test [2] is Diabrotica balteata (corn root worm). Description: Example B4: Diabrotica balteata larvae L2 on maize sprouts, feeding/contact, preventative. Conditions: 120 h, L2 larvae on sprayed maize sprouts, 5 days incubation, read-out: activity (larval mortality, growth regulation). The method, then: Example B4: Activity Against Diabrotica Balteata (Corn Root Worm)
(Larvae L2 on Maize Sprouts, Feeding/Contact, Preventative)
Maize sprouts, placed on an agar layer in 24 well micro titer plates were treated with test solutions by spraying. After drying, the MTPs were infested with L2 larvae (6-10 per well). After an incubation period of 5 days, samples were checked for larval mortality and growth regulation.

Test [3] relates to Plutella xylostella (diamond back moth). Description: Example B3: Plutella xylostella larvicide, feeding/residual contact, preventive (artificial diet). The following applies: 120 h, L2 larvae on artificial diet, 5 days incubation, read-out: activity (larval mortality, antifeedant, growth regulation). The method, then:
Example B3: Activity Against Plutella xylostella (Diamond Back Moth)
(Larvicide, Feeding/Residual Contact Activity, Preventive)
24-well microtiter plate (MTP) with artificial diet was treated with test solutions by pipetting. After drying, the MTPs were infested with L2 larvae (10-15 per well). After an incubation period of 5 days, samples were checked for larval mortality, antifeedant and growth regulation.

Test [4] has as its system Myzus persicae (green peach aphid). As to the kind of experiment: Example B5: Myzus persicae feeding/residual contact, preventive, mixed population (sunflower leaf discs). Conditions: foliar, 144 h, mixed population on sprayed sunflower leaf discs, 6 DAT, read-out: activity (mortality, special effects). The method, then:
Example B5: Activity Against Myzus persicae (Green Peach Aphid)
(Feeding/Residual Contact Activity, Preventive), Mixed Population
Sunflower leaf discs were placed on agar in a 24-well microtiter plate and sprayed with test solutions. After drying, the leaf discs were infested with an aphid population of mixed ages. After an incubation period of 6 DAT, samples were checked for mortality and special effects (e.g. phytotoxicity).

The test system is the same in test [5]. Description: Example B7: Myzus persicae systemic/feeding activity, curative, mixed population (pea seedlings). Conditions: 144 h, roots of infested pea seedlings in test solution, 6 days after introduction, read-out: activity (mortality, special effects on the plant). An excerpt:
Example B7: Activity Against Myzus persicae (Green Peach Aphid)
(Systemic/Feeding Activity, Curative), Mixed Population
Roots of pea seedlings, infested with an aphid population of mixed ages, were placed directly in the test solutions. 6 days after introduction, samples were checked for mortality and special effects on the plant.

Test [6] deals with Bemisia tabaci (cotton white fly). As to the kind of experiment: Example B9: Bemisia tabaci adulticide contact activity, preventative. Conditions: foliar, 168 h, adult white flies on sprayed cotton leaf discs, 7 DAT, read-out: activity (mortality, special effects). The method, then: Example B9: Activity Against Bemisia tabaci (Cotton White Fly)
(Adulticide Contact Activity, Preventative), Adult
Cotton leaf discs were placed on agar in a 24-well microtiter plate and sprayed with test solutions. After drying, the leaf discs were infested with adult white flies. After an incubation period of 7 DAT, samples were checked for mortality and special effects (e.g. phytotoxicity).

Molecules are shown by their SMILES.

Regarding `CCS(=O)(=O)c1cc(C(F)(F)F)cnc1-c1nnc(-c2ccc(C(F)(F)F)cn2)n1C` [Compound P10], the mortality at 400 ppm in test [1] and in test [2] was greater than 80% throughout.
`CCS(=O)(=O)c1cc(C(F)(F)F)cnc1-c1nnc(-c2cc(C(F)(F)F)cc(C(F)(F)F)c2)n1C` [Compound P12]: the mortality at 400 ppm in test [1] and in test [3] was greater than 80% in each case.
In the case of `CCS(=O)(=O)c1cc(C(F)(F)F)cnc1-c1nnc(-c2cc(Cl)cc(Cl)c2)n1C` [Compound P16], the mortality at 400 ppm in test [1], in test [2] and in test [4] was greater than 80% each time.
Consider `CCS(=O)(=O)c1cc(C(F)(F)F)cnc1-c1nnc(-c2cc(C(F)(F)F)ccc2F)n1C` [Compound P19], for which, in test [4], the mortality at 400 ppm is greater than 80%.
In the case of `CCS(=O)(=O)c1cc(C(F)(F)F)cnc1-c1nnc(-c2ccc(C(F)(C(F)(F)F)C(F)(F)F)cc2)n1C` [Compound P21], the mortality at 400 ppm in test [1] and in test [2] was greater than 80% each time.
With `CCS(=O)(=O)c1cc(C(F)(F)F)cnc1-c1nnc(-c2cccc(C#N)c2)n1C` [Compound P34], the mortality at 24 ppm in test [5] was no less than 80%. Besides, in test [4], the mortality at 400 ppm was greater than 80%.
Turning to `CCS(=O)(=O)c1cc(C(F)(F)F)cnc1-c1nnc(-c2ccc(C#N)cc2)n1C` [Compound P35], the mortality at 24 ppm in test [5] was no less than 80%. The mortality at 400 ppm in test [2] is greater than 80%.
Regarding `CCS(=O)(=O)c1cc(C(F)(F)F)cnc1-c1nnc(-c2ccc(Cl)c(Cl)c2)n1C` [Compound P46], the mortality at 400 ppm in test [1], in test [2] and in test [4] was greater than 80% in each case.
Regarding `CCSc1cc(C(F)(F)F)cnc1-c1nnc(-c2cccc(C(F)(F)F)n2)n1C` [Compound P49], in test [6], the mortality at 400 ppm is greater than 80%.
With `CCS(=O)(=O)c1cc(C(F)(F)F)cnc1-c1nnc(-c2ccc(C(F)F)cc2)n1C` [Compound P53], the mortality at 400 ppm in test [4] is greater than 80%.
Consider `CCSc1cc(C(F)(F)F)ccc1-c1nnc(-c2ccc(C(F)(F)F)nc2)n1C` [Compound P54], for which the mortality at 400 ppm in test [2] is greater than 80%.
As to `CCS(=O)(=O)c1cc(C(F)(F)F)ccc1-c1nnc(-c2ccc(C(F)(F)F)nc2)n1C` [Compound P55], the mortality at 24 ppm in test [5] is no less than 80%. Moreover, the mortality at 400 ppm in test [2] and in test [4] was greater than 80% throughout.
Take `CCS(=O)(=O)c1cc(C(F)(F)F)cnc1-c1nnc(-c2ccc3c(c2)OC(F)(F)O3)n1C` [Compound P56]: the mortality at 400 ppm in test [1] and in test [2] was greater than 80% throughout.
Turning to `CCS(=O)(=O)c1cc(C(F)(F)F)cnc1-c1nnc(-c2ccc(C(F)(F)F)c(C(F)(F)F)c2)n1C` [Compound P61, 2-[5-[3,4-bis(trifluoromethyl)phenyl]-4-methyl-1,2,4-triazol-3-yl]-3-ethylsulfonyl-5-(trifluoromethyl)pyridine], the mortality at 400 ppm in test [1], in test [3], in test [2], in test [6] and in test [4] was greater than 80% in each case.
For `CCS(=O)(=O)c1cc(C(F)(F)F)cnc1-c1nnc(-c2cc(C(F)(F)F)cc(Cl)n2)n1C` [Compound P63], the mortality at 400 ppm in test [1] and in test [2] was greater than 80% throughout.
On to `CCSc1cc(C(F)(F)F)cnc1-c1nnc(-c2cc(C(F)(F)F)ccn2)n1CC` [Compound P64], for which the mortality at 400 ppm in test [1] and in test [2] was greater than 80% in each case.
`CSc1cc(C(F)(F)F)cnc1-c1nnc(-c2cc(C(F)(F)F)ccn2)n1C` [Compound P70]: the mortality at 400 ppm in test [2] was greater than 80%.
For the compound `Cn1c(-c2cc(C(F)(F)F)ccn2)nnc1-c1ncc(C(F)(F)F)cc1S(C)(=O)=O` [Compound P71], the mortality at 400 ppm in test [1], in test [3], in test [2] and in test [4] was greater than 80% each time. Further, the mortality at 24 ppm in test [5] was no less than 80%.
